# Measured values from patent US20160272620A1 (priority 2013, published 2016).
# Like-named read-outs stand apart in the source and are kept apart here.
# Legend:
# [1] = rat brain microdialysis, HPLC/UV; cited from earlier work
# [2] = target: T1, paraoxon-hAChE (Homo sapiens, UniProt P22303); assay type: biochemical
# [3] = target: T1, paraoxon-hAChE; settings: cited from earlier work
# T1 sequence (P22303 32-574): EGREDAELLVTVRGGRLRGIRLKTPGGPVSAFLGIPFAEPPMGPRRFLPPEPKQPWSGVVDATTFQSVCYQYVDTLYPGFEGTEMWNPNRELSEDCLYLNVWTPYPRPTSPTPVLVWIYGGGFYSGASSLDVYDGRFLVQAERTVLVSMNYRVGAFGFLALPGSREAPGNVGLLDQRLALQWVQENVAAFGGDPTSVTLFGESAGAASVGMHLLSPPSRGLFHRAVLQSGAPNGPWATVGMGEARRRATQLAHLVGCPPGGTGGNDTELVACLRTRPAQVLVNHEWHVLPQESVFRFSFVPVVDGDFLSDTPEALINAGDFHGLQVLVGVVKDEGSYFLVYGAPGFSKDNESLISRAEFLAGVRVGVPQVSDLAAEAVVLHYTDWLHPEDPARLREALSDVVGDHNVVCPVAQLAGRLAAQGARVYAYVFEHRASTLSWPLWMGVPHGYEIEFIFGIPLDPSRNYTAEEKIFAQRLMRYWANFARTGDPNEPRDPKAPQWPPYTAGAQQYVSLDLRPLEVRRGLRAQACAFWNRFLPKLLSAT
SMILES,kr [2] [min⁻¹],kr2 [2] [M⁻¹ s⁻¹],further results
C[n+]1ccccc1/C=N/O [Compound 2-PAM],,,BBB penetration [1]: 10%
"O/N=C/c1nc(CCCCCNc2c3c(nc4ccccc24)CCCC3)ccc1O [Compound 11, 2-[(1E)-(hydroxyimino)methyl]-6-{5-[(1,2,3,4-tetrahydroacridin-9-yl)amino]pentyl}pyridin-3-ol]",0.0228 ± 0.0006,348,
ON=Cc1cc[n+](CCC[n+]2ccc(/C=N/O)cc2)cc1 [Trimedoxime],,,kr [3]: 0.34 ± 0.02 ^a min^−1; kr2 [3]: 17 ^a mM^−1min^−1
"ON=Cc1nccc(CCCCCNc2c3c(nc4ccccc24)CCCC3)c1O [Compound 10, 2-[(hydroxyimino)methyl]-4-{5-[(1,2,3,4-tetrahydroacridin-9-yl)amino]pentyl}pyridin-3-ol]",,,reactivation of paraoxon inhibited hAChE [2]: no reactivation
"ON=Cc1nc(CCCCNc2c3c(nc4ccccc24)CCCC3)ccc1O [Compound 12, 2-[1-(hydroxyimino)methyl]-6-{4-[(1,2,3,4-tetrahydroacridin-9-yl)amino]butyl}pyridin-3-ol]",0.111 ± 0.002,517,
"ON=Cc1nc(CCCCNc2c3c(nc4ccc(Cl)cc24)CCCC3)ccc1O [Compound 15, 6-(4-((7-Chloro-1,2,3,4-tetrahydroacridin-9-yl)amino)butyl)-3-hydroxy-picolin-aldehyde oxime]",0.11 ± 0.01,317,
